Measurements: ChEMBL document CHEMBL4052724, “Influence of the cellular environment on ligand binding kinetics at membrane-bound targets” (Bioorg Med Chem Lett, 2017)

How the values were obtained:
[1] = target: T1, Type-1 angiotensin II receptor (Homo sapiens) (UniProt P30556); test: Antagonist activity at human AT1 receptor expressed in CHO cells assessed as reduction in angiotensin 2-induced inositol phosphate accumulation by measuring dissociation rate constant preincubated with cells followed by compound washout in presence of losartan and subsequent addition of angiotensin 2 for 5 mins; format: functional, cell-based
T1 sequence (whole entry): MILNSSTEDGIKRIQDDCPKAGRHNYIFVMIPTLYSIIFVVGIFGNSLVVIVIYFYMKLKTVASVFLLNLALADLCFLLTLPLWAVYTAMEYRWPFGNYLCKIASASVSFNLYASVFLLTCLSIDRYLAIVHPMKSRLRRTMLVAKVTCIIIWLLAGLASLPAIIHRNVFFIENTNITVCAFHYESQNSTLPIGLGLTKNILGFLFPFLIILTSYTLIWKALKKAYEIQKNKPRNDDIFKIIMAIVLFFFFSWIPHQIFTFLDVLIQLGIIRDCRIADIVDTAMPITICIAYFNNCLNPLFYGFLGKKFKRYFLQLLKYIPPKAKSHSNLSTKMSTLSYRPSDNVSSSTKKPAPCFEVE

[2] = target: T1, Type-1 angiotensin II receptor (Homo sapiens); test: Antagonist activity at human AT1 receptor expressed in CHO cells assessed as reduction in angiotensin 2-induced inositol phosphate accumulation by measuring dissociation rate constant preincubated with cells followed by compound washout and subsequent addition of angiotensin 2 for 5 mins; format: functional, cell-based
[3] = target: T1, Type-1 angiotensin II receptor (Homo sapiens); test: (§1) Antagonist activity at human AT1 receptor expressed in CHO cells assessed as reduction in angiotensin 2-induced inositol phosphate accumulation by measuring residence time constant preincubated with cells followed by compound washout and subsequent addition of angiotensin 2 for 5 mins; format: functional, cell-based
[4] = target: T1, Type-1 angiotensin II receptor (Homo sapiens); test: as §1, with “washout in presence of losartan” for “washout”; format: functional, cell-based
[5] = target: T1, Type-1 angiotensin II receptor (Homo sapiens); test: Displacement of [3H]-candesartan from human AT1 receptor expressed in CHO cells assessed as dissociation rate constant at 1.5 nM pre-incubated with cells followed by compound washout and subsequent addition of [3H]-candesartan up to 60 mins; format: cell-based
[6] = target: T1, Type-1 angiotensin II receptor (Homo sapiens); test: Binding affinity to human AT1 receptor expressed in CHO cells assessed as dissociation rate constant at 1.5 nM incubated for 60 mins followed by compound washout; format: cell-based
[7] = target: T1, Type-1 angiotensin II receptor (Homo sapiens); test: Binding affinity to human AT1 receptor expressed in CHO cells assessed as dissociation rate constant at 1.5 nM incubated for 60 mins followed by compound washout in presence of losartan; format: cell-based
[8] = target: T1, Type-1 angiotensin II receptor (Homo sapiens); test: Binding affinity to human AT1 receptor expressed in CHO cells assessed as dissociation rate constant at 1.5 nM incubated for 60 mins measured after isotopic dilution; format: cell-based
[9] = target: T1, Type-1 angiotensin II receptor (Homo sapiens); test: Displacement of [3H]-candesartan from human AT1 receptor expressed in CHO cells assessed as residence time at 1.5 nM pre-incubated with cells followed by compound washout and subsequent addition of [3H]-candesartan up to 60 mins; format: cell-based
[10] = target: T1, Type-1 angiotensin II receptor (Homo sapiens); test: Binding affinity to human AT1 receptor expressed in CHO cells assessed as residence time at 1.5 nM incubated for 60 mins followed by compound washout; format: cell-based
[11] = target: T1, Type-1 angiotensin II receptor (Homo sapiens); test: Binding affinity to human AT1 receptor expressed in CHO cells assessed as residence time at 1.5 nM incubated for 60 mins followed by compound washout in presence of losartan; format: cell-based
[12] = target: T1, Type-1 angiotensin II receptor (Homo sapiens); test: Binding affinity to human AT1 receptor expressed in CHO cells assessed as residence time at 1.5 nM incubated for 60 mins measured after isotopic dilution; format: cell-based
[13] = target: T1, Type-1 angiotensin II receptor (Homo sapiens); test: Displacement of [3H]-candesartan from human AT1 receptor expressed in CHO cells assessed as dissociation rate constant at 100 nM pre-incubated with cells followed by compound washout and subsequent addition of [3H]-candesartan up to 60 mins; format: cell-based
[14] = target: T1, Type-1 angiotensin II receptor (Homo sapiens); test: Binding affinity to human AT1 receptor expressed in CHO cells assessed as dissociation rate constant at 3 nM incubated for 60 mins followed by compound washout; format: cell-based
[15] = target: T1, Type-1 angiotensin II receptor (Homo sapiens); test: Binding affinity to human AT1 receptor expressed in CHO cells assessed as dissociation rate constant at 3 nM incubated for 60 mins followed by compound washout in presence of losartan; format: cell-based
[16] = target: T1, Type-1 angiotensin II receptor (Homo sapiens); test: Binding affinity to human AT1 receptor expressed in CHO cells assessed as dissociation rate constant at 3 nM incubated for 60 mins measured after isotopic dilution; format: cell-based
[17] = target: T1, Type-1 angiotensin II receptor (Homo sapiens); test: Displacement of [3H]-candesartan from human AT1 receptor expressed in CHO cells assessed as residence time at 100 nM pre-incubated with cells followed by compound washout and subsequent addition of [3H]-candesartan up to 60 mins; format: cell-based
[18] = target: T1, Type-1 angiotensin II receptor (Homo sapiens); test: Binding affinity to human AT1 receptor expressed in CHO cells assessed as residence time at 3 nM incubated for 60 mins followed by compound washout; format: cell-based
[19] = target: T1, Type-1 angiotensin II receptor (Homo sapiens); test: Binding affinity to human AT1 receptor expressed in CHO cells assessed as residence time at 3 nM incubated for 60 mins followed by compound washout in presence of losartan; format: cell-based
[20] = target: T1, Type-1 angiotensin II receptor (Homo sapiens); test: Binding affinity to human AT1 receptor expressed in CHO cells assessed as residence time at 3 nM incubated for 60 mins measured after isotopic dilution; format: cell-based

| Structure (SMILES) | K [1] [min⁻¹] | K [2] [min⁻¹] | TIME [3] [h] | TIME [4] [h] | K [5] [min⁻¹] | K [6] [min⁻¹] | K [7] [min⁻¹] | K [8] [min⁻¹] | TIME [9] [h] | TIME [10] [h] | TIME [11] [h] | TIME [12] [h] | K [13] [min⁻¹] | K [14] [min⁻¹] | K [15] [min⁻¹] | K [16] [min⁻¹] | TIME [17] [h] | TIME [18] [h] | TIME [19] [h] | TIME [20] [h] |
| --- | --- | --- | --- | --- | --- | --- | --- | --- | --- | --- | --- | --- | --- | --- | --- | --- | --- | --- | --- | --- |
| CCCCc1nc(Cl)c(C(=O)O)n1Cc1ccc(-c2ccccc2-c2nn[nH]n2)cc1 | 0.021 | 0.016 | 1.05 | 0.8 | – | – | – | – | – | – | – | – | – | – | – | – | – | – | – | – |
| CCOc1nc2cccc(C(=O)O)c2n1Cc1ccc(-c2ccccc2-c2nnn[nH]2)cc1 | 0.003 | 0.002 | 7.57 | 4.45 | 0.004 | 0.001 | 0.005 | 0.006 | 3.65 | 16.6 | 3.62 | 2.7 | – | – | – | – | – | – | – | – |
| CCCCC(=O)N(Cc1ccc(-c2ccccc2-c2nn[nH]n2)cc1)[C@@H](C(=O)O)C(C)C | – | – | – | – | – | 0.028 | 0.049 | 0.041 | – | 0.6 | 0.333 | 0.417 | – | – | – | – | – | – | – | – |
| CCCCC1=NC2(CCCC2)C(=O)N1Cc1ccc(-c2ccccc2-c2nnn[nH]2)cc1 | 0.058 | 0.039 | 0.433 | 0.283 | – | – | – | – | – | – | – | – | 0.04 | 0.128 | 0.101 | 0.104 | 0.417 | 0.15 | 0.15 | 0.167 |
